Measurements from patent publication US4379784A, “Pyrimidinyl ureido penicillins” (Dr. Karl Thomae Gesellschaft mit beschrankter Haftung, priority 1980, dated 1983).
≈ marks a conversion by molar mass, not a printed value.

Columns and labels:
[1] = tested on: Staphylococcus aureus SG 511; assay: series dilution test in the microtiter system (MIC), S. aureus SG 511; assay type: cell-based; conditions: SG511, 18 to 20 hours at 37° C., liquid medium, read-out: minimum inhibitory concentrations (MIC), S.aureus SG 511
Experimental: (§1) The method of the series dilution test in the microtiter system was used. The substances were tested for bacteriostasis in a liquid medium. The bacteriostatic activity was tested at the following concentrations:
(§2) A nutrient medium having the following composition was used: 10 gm of peptone, 8 gm of meat extract oxoid, 3 gm of sodium chloride, and 2 gm of sec. sodium phosphate were made up to […] with distilled water (pH 7.2 to 7.4). The age of the primary cultures was about 20 hours.
(§3) The bacterial suspension was adjusted using the photometer (according to "Eppendorf", test tube diameter 14 mm, filter 546 nm) by reference to the turbidity of a barium sulfate comparison suspension which was produced by a barium sulfate suspension formed by the addition of 3.0 ml of 1% barium chloride solution to 97 ml of 1% sulfuric acid. After adjustment, Streptococcus aronson was diluted in the ratio 1:15 and the other test pathogens were diluted in the ratio 1:1500 with a common salt solution.
(§4) 16 mg of the test substance were weighed in 10 ml measuring flasks and solvent was added up to the mark. Further dilutions in the series were made with distilled water or the solvent in question.
(§5) The depressions in the microtiter plates were filled with 0.2 ml of nutrient medium, 0.01 ml of the corresponding diluted substance and a drop of bacterial suspension (0.01 ml) and incubated for 18 to 20 hours at 37° C. A solvent check was carried out continuously at the same time.
(§6) The reading was taken macroscopically, and the respective limiting concentration (=the lowest concentration still having bacteriostatic activity) was determined.
(§7) The following were used as test organisms:
(§8) Staphylococcus aureus SG 511, Escherichia coli ATCC 11 775, Pseudomonas aeruginosa Hamburgensis and Pseudomonas aeruginosa BC 19, Serratia Marcescens ATCC 13 880, Klebsiella pneumoniae ATCC 10 031 and BC 6, Proteus mirabilis Hamburgensis, Proteus rettgeri BC 7, Enterobacter cloacae ATCC 13 047.
(§9) Table 1 below lists the minimum inhibitory concentrations (MIC) in μgm/ml determined for typical representatives of the compounds of the present invention. These are the sodium salts of compounds of the formula I where A=p-hydroxyphenyl and R has the indicated meanings.

[2] = tested on: Proteus rettgeri BC 7; assay: series dilution test in the microtiter system (MIC), Proteus rettgeri BC 7; assay type: cell-based; conditions: Providencia rettgeri, BC7; 18 to 20 hours at 37° C., liquid medium; read-out: minimum inhibitory concentrations (MIC), Prot. geri BC
Experimental: as §1, §2, §3, §4, §5, §6, §7, §8, §9

[3] = tested on: Proteus mirabilis Hamburgensis; assay: series dilution test in the microtiter system (MIC), Proteus mirabilis Hamburgensis; assay type: cell-based; conditions: 18 to 20 hours at 37° C., liquid medium, read-out: minimum inhibitory concentrations (MIC), Prot. mirabilis Hbg
Experimental: as §1, §2, §3, §4, §5, §6, §7, §8, §9

[4] = tested on: Klebsiella pneumoniae ATCC 10 031; assay: series dilution test in the microtiter system (MIC), Klebsiella pneumoniae ATCC 10031; assay type: cell-based; conditions: 18 to 20 hours at 37° C., liquid medium, read-out: minimum inhibitory concentrations (MIC), Klebs.pneum. ATCC 10031
Experimental: as §1, §2, §3, §4, §5, §6, §7, §8, §9

[5] = tested on: E. coli ATCC 11775; assay: in vivo experimental E. coli infection in mice; design: species or system mice (female, NMRI strain); conditions: Escherichia coli, ATCC11775, sc, 168 h; subcutaneous, one treatment 1 hour post infectionem; 50% survival, 7 days observation
Experimental: (§10) A number of the compounds of the present invention were tested in vivo against experimental infections in mice. E. coli ATCC 11775 and Pseudomonas aeruginosa BC 19 were used as the pathogenic bacteria. An intraperitoneal infection was produced with 0.2 ml of a 5% mucin suspension of the bacteria. This corresponds to about 1.4×10^6 E. coli bacteria and 1.3×10^6 Pseudomonas bacteria per mouse. Female mice of the NMRI strain were divided into groups of 10 animals; two groups were untreated, the other groups were treated subcutaneously with various doses of the penicillins of the present invention, to determine the ED50 (dose at which 50% of the animals survived). For the E. coli infection, one treatment was given*. For the Pseudomonas infection, three treatments were given (1, 3 and 5 hours post-infectionem). *1 hour post infectionem In both cases, the observation period was 7 days.

[6] = tested on: Pseudomonas aeruginosa Hamburgensis; assay: series dilution test in the microtiter system (MIC), Ps. aeruginosa Hamburgensis; assay type: cell-based; conditions: 18 to 20 hours at 37° C., liquid medium, read-out: minimum inhibitory concentrations (MIC), Pseud. aerug. Hbg.
Experimental: as §1, §2, §3, §4, §5, §6, §7, §8, §9

[7] = tested on: Enterobacter cloacae ATCC 13 047; assay: series dilution test in the microtiter system (MIC), Enterobacter cloacae ATCC 13047; assay type: cell-based; conditions: 18 to 20 hours at 37° C., liquid medium, read-out: minimum inhibitory concentrations (MIC), Eb.cloacae ATCC 13047
Experimental: as §1, §2, §3, §4, §5, §6, §7, §8, §9

[8] = tested on: Escherichia coli ATCC 11 775; assay: series dilution test in the microtiter system (MIC), E. coli ATCC 11775; assay type: cell-based; conditions: 18 to 20 hours at 37° C., liquid medium, read-out: minimum inhibitory concentrations (MIC), E.Coli ATCC 11775
Experimental: as §1, §2, §3, §4, §5, §6, §7, §8, §9

[9] = tested on: Pseudomonas aeruginosa BC 19; assay: series dilution test in the microtiter system (MIC), Ps. aeruginosa BC 19; assay type: cell-based; conditions: BC19, 18 to 20 hours at 37° C., liquid medium, read-out: minimum inhibitory concentrations (MIC), Pseud. aerug. BC 19
Experimental: as §1, §2, §3, §4, §5, §6, §7, §8, §9

[10] = tested on: Serratia Marcescens ATCC 13 880; assay: series dilution test in the microtiter system (MIC), Serratia marcescens ATCC 13880; assay type: cell-based; conditions: 18 to 20 hours at 37° C., liquid medium, read-out: minimum inhibitory concentrations (MIC), Serrat. marcesc. ATCC 13880
Experimental: as §1, §2, §3, §4, §5, §6, §7, §8, §9

[11] = tested on: Klebsiella pneumoniae BC 6; assay: series dilution test in the microtiter system (MIC), Klebsiella pneumoniae BC 6; assay type: cell-based; conditions: BC6, 18 to 20 hours at 37° C., liquid medium, read-out: minimum inhibitory concentrations (MIC), Klebs. pneum. BC 6
Experimental: as §1, §2, §3, §4, §5, §6, §7, §8, §9

[12] = tested on: Pseudomonas aeruginosa BC 19; assay: in vivo experimental Pseudomonas infection in mice; design: species or system mice (female, NMRI strain); conditions: BC19, sc, 168 h, subcutaneous, three treatments 1, 3 and 5 hours post-infectionem, 50% survival, 7 days observation, read-out: ED50, Pseud. Infection
Experimental: as §10, with “post-infectionem).” for “post-infectionem). *1 hour post infectionem”

CC1(C)S[C@@H]2[C@H](NC(=O)C(NC(=O)Nc3cnc(Nc4ccc(S(=O)(=O)NC5=NCCO5)cc4)nc3O)c3ccc(O)cc3)C(=O)N2[C@H]1C(=O)O (some centres unmarked) [D]
MIC [1]: 0.5 µg/mL (≈ 0.674 µM)
MIC [2]: 0.25 µg/mL (≈ 0.337 µM)
MIC [3]: 0.06 µg/mL (≈ 0.0809 µM)
MIC [4]: 2 µg/mL (≈ 2.7 µM)
ED50 [5]: ~2 mg/kg
MIC [6]: 1 µg/mL (≈ 1.35 µM)
MIC [7]: 1 µg/mL (≈ 1.35 µM)
MIC [8]: 0.25 µg/mL (≈ 0.337 µM)
MIC [9]: 1 µg/mL (≈ 1.35 µM)
MIC [10]: 0.25 µg/mL (≈ 0.337 µM)
MIC [11]: 4 µg/mL (≈ 5.39 µM)

CC1(C)S[C@@H]2[C@H](NC(=O)C(NC(=O)Nc3cnc(Nc4ccc(S(=O)(=O)NC5=NCCCN5)cc4)nc3O)c3ccc(O)cc3)C(=O)N2[C@H]1C(=O)O (some centres unmarked) [A]
MIC [1]: 0.25 µg/mL (≈ 0.331 µM)
MIC [2]: 0.5 µg/mL (≈ 0.662 µM)
MIC [3]: 0.06 µg/mL (≈ 0.0795 µM)
MIC [4]: 2 µg/mL (≈ 2.65 µM)
ED50 [5]: 0.6 mg/kg
MIC [6]: 1 µg/mL (≈ 1.32 µM)
ED50 [12]: 2.1 mg/kg
MIC [7]: 0.5 µg/mL (≈ 0.662 µM)
MIC [8]: 0.25 µg/mL (≈ 0.331 µM)
MIC [9]: 1 µg/mL (≈ 1.32 µM)
MIC [10]: 0.5 µg/mL (≈ 0.662 µM)
MIC [11]: 2 µg/mL (≈ 2.65 µM)

CC1(C)S[C@@H]2[C@H](NC(=O)C(NC(=O)Nc3cnc(Nc4ccc(S(=O)(=O)NCC(N)=O)cc4)nc3O)c3ccc(O)cc3)C(=O)N2[C@H]1C(=O)O (some centres unmarked) [G]
MIC [1]: 0.5 µg/mL (≈ 0.685 µM)
MIC [2]: 0.5 µg/mL (≈ 0.685 µM)
MIC [3]: 0.06 µg/mL (≈ 0.0822 µM)
MIC [4]: 2 µg/mL (≈ 2.74 µM)
ED50 [5]: ~5 mg/kg
MIC [6]: 1 µg/mL (≈ 1.37 µM)
MIC [7]: 1 µg/mL (≈ 1.37 µM)
MIC [8]: 0.12 µg/mL (≈ 0.164 µM)
MIC [9]: 1 µg/mL (≈ 1.37 µM)
MIC [10]: 0.25 µg/mL (≈ 0.343 µM)
MIC [11]: 2 µg/mL (≈ 2.74 µM)

CC1(C)S[C@@H]2[C@H](NC(=O)C(NC(=O)Nc3cnc(Nc4ccc(S(=O)(=O)NC5=NCCN5)cc4)nc3O)c3ccc(O)cc3)C(=O)N2[C@H]1C(=O)O (some centres unmarked) [B]
MIC [1]: 0.5 µg/mL (≈ 0.675 µM)
MIC [2]: 0.5 µg/mL (≈ 0.675 µM)
MIC [3]: 0.06 µg/mL (≈ 0.081 µM)
MIC [4]: 2 µg/mL (≈ 2.7 µM)
ED50 [5]: 0.7 mg/kg
MIC [6]: 2 µg/mL (≈ 2.7 µM)
ED50 [12]: 1.9 mg/kg
MIC [7]: 0.1 µg/mL (≈ 0.135 µM)
MIC [8]: 0.25 µg/mL (≈ 0.337 µM)
MIC [9]: 1 µg/mL (≈ 1.35 µM)
MIC [10]: 0.25 µg/mL (≈ 0.337 µM)
MIC [11]: 4 µg/mL (≈ 5.4 µM)

CC1(C)S[C@@H]2[C@H](NC(=O)[C@H](NC(=O)N3CCNC3=O)c3ccccc3)C(=O)N2[C@H]1C(=O)O [J, azlocillin, reference compound]
MIC [1]: 0.5 µg/mL (≈ 1.08 µM)
MIC [2]: 8 µg/mL (≈ 17.3 µM)
MIC [3]: 2 µg/mL (≈ 4.33 µM)
MIC [4]: 32 µg/mL (≈ 69.3 µM)
ED50 [5]: > 100 mg/kg
MIC [6]: 8 µg/mL (≈ 17.3 µM)
ED50 [12]: > 100 mg/kg
MIC [7]: 32 µg/mL (≈ 69.3 µM)
MIC [8]: 8 µg/mL (≈ 17.3 µM)
MIC [9]: 8 µg/mL (≈ 17.3 µM)
MIC [10]: 4 µg/mL (≈ 8.67 µM)
MIC [11]: 32 µg/mL (≈ 69.3 µM)

CC1(C)S[C@@H]2[C@H](NC(=O)C(NC(=O)Nc3cnc(Nc4ccc(S(=O)(=O)NC5=NCCS5)cc4)nc3O)c3ccc(O)cc3)C(=O)N2[C@H]1C(=O)O (some centres unmarked) [C]
MIC [1]: 0.25 µg/mL (≈ 0.33 µM)
MIC [2]: 0.25 µg/mL (≈ 0.33 µM)
MIC [3]: 0.06 µg/mL (≈ 0.0792 µM)
MIC [4]: 1 µg/mL (≈ 1.32 µM)
ED50 [5]: ~3 mg/kg
MIC [6]: 1 µg/mL (≈ 1.32 µM)
ED50 [12]: 17 mg/kg
MIC [7]: 0.5 µg/mL (≈ 0.66 µM)
MIC [8]: 0.12 µg/mL (≈ 0.158 µM)
MIC [9]: 2 µg/mL (≈ 2.64 µM)
MIC [10]: 0.25 µg/mL (≈ 0.33 µM)
MIC [11]: 1 µg/mL (≈ 1.32 µM)

CC1(C)S[C@@H]2[C@H](NC(=O)C(NC(=O)Nc3cnc(Nc4ccc(S(=O)(=O)NCCO)cc4)nc3O)c3ccc(O)cc3)C(=O)N2[C@H]1C(=O)O (some centres unmarked) [F]
MIC [1]: 0.5 µg/mL (≈ 0.698 µM)
MIC [2]: 0.5 µg/mL (≈ 0.698 µM)
MIC [3]: 0.06 µg/mL (≈ 0.0837 µM)
MIC [4]: 2 µg/mL (≈ 2.79 µM)
ED50 [5]: ~5 mg/kg
MIC [6]: 2 µg/mL (≈ 2.79 µM)
ED50 [12]: 10 to 20 mg/kg
MIC [7]: 2 µg/mL (≈ 2.79 µM)
MIC [8]: 0.25 µg/mL (≈ 0.349 µM)
MIC [9]: 1 µg/mL (≈ 1.4 µM)
MIC [10]: 0.13 µg/mL (≈ 0.181 µM)
MIC [11]: 4 µg/mL (≈ 5.58 µM)

CC1(C)S[C@@H]2[C@H](NC(=O)C(NC(=O)Nc3cnc(Nc4ccc(S(=O)(=O)N5CCN(C=O)CC5)cc4)nc3O)c3ccc(O)cc3)C(=O)N2[C@H]1C(=O)O (some centres unmarked) [H]
MIC [1]: 0.5 µg/mL (≈ 0.65 µM)
MIC [2]: 0.5 µg/mL (≈ 0.65 µM)
MIC [3]: 0.06 µg/mL (≈ 0.0779 µM)
MIC [4]: 2 µg/mL (≈ 2.6 µM)
MIC [6]: 2 µg/mL (≈ 2.6 µM)
MIC [7]: 1 µg/mL (≈ 1.3 µM)
MIC [8]: 0.25 µg/mL (≈ 0.325 µM)
MIC [9]: 1 µg/mL (≈ 1.3 µM)
MIC [10]: 0.25 µg/mL (≈ 0.325 µM)
MIC [11]: 2 µg/mL (≈ 2.6 µM)
